Experimental data as given in patent US20100168085A1, “Dopamine and agonists and antagonists thereof for modulation of suppressive activity of CD4+CD25+ regulatory T cells” (YESA RESEARCH AND DEVELOPMENT CO. LTD. at the Weizmann …, priority 2003, published 2010).

Key:
CTLA-4 on Treg = experiment: FACS analysis of CTLA-4 expression; type: cell-based, mouse; details: Treg activated 24 h, 2 h with compound, stained 24 h later
Protocol: (vii) FACS analysis of CTLA-4-expressing CD4^+ T cells. Cells were immunostained according to the manufacturer's instructions, resuspended in 0.4 mL of 1% paraformaldehyde, and analyzed by FACSort (Becton-Dickinson), with 10,000 events scored. […] The cells were scored from a region defined according to physical parameters that indicate the size (forward scatter) and granularity (side scatter) of lymphocytes. CD4^+ lymphocytes were then gated for analysis of CTLA-4 expression.
To gain further insight into the mechanism whereby dopamine affects Treg activity we examined CTLA-4, a molecule characteristic of Treg (Im et al., 2001).

[1] = tested on: suppressive activity of CD4+CD25+ regulatory T cells (Treg) on Teff proliferation; experiment: Inhibition assay (co-culturing of Teff with Treg), [3H]-thymidine incorporation; type: cell-based, mouse; details: for Inhibitory effect on Treg activity: freshly isolated (nonactivated) Treg; for Effect on Treg suppressive activity: activated Treg
Protocol: (xvi) Activation of CD4^+CD25^+ regulatory T cells. Purified regulatory T cells (Treg; 0.5×10^6 cells/mL) were activated in RPMI medium supplemented with L-glutamine (2 mM), 2-mercaptoethanol (5×10^−5 M), sodium pyruvate (1 mM), penicillin (100 IU/mL), streptomycin (100 μg/mL), nonessential amino acids (1 mL/100 mL), and autologous serum 2% (vol/vol) in the presence of mrIL-2 (5 ng/mL) and soluble anti-CD3 antibodies (1 ng/mL). Irradiated (2500 rad) splenocytes (1.5×10^6 cells/mL) were added to the culture. Cells were activated for 24 or 96 h. In some of the 96-h experiments, fresh dopamine was added to the culture every 24 h during activation.
(xvii) Inhibition assay (co-culturing of Teff with Treg). Naïve effector T cells (Teff; 50×10^3 cells/well) were co-cultured with decreasing numbers of activated Treg for 72 h in 96-well flat-bottomed plates in the presence of irradiated splenocytes (10^6/mL) supplemented with anti-CD3 antibodies. [^3H]-thymidine (1 μCi) was added for the last 16 h of culture. After the cells were harvested, their [^3H]-thymidine content was analyzed by the use of […].
In this experiment, we examined whether dopamine acts on Treg and alters their suppressive effect on Teff. Suppression of proliferation of Teff, assayed by [^3H]thymidine incorporation, was used as a measure of suppressive effect of Treg (Thornton and Shevach, 1998).
Shevach, 1998, 2000). Inhibition of Treg proliferation, assayed by [^3H]thymidine incorporation, can therefore be taken as a measure of the suppressive effect. We examined the ability of major neurotransmitters and neuropeptides (dopamine, norepinephrine, substance P, and serotonin) to alleviate the Treg-induced suppression of Teff in vitro. Each compound was tested at several concentrations. […] After incubating the activated Treg for 2 h with a neurotransmitter or a neuropeptide, we washed the cells and then co-cultured them with Teff.

[2] = tested on: migration of T cells towards SDF-1
Protocol: The migration of T cells across polycarbonate filters (pore size 5 μm, diameter 6.5 mm) towards SDF-1 and MDC (CCL22) was assayed in 24-well Transwell chambers (Costar, Corning, Corning, N.Y.). T lymphocytes (1.67×10^6 cells/mL) were suspended in RPMI/0.1% BSA, and 150 μL of the cell suspension was added to the upper chamber after incubation with or without dopamine (90 min, 37° C.). Chemokines were added to the lower chamber at concentrations of 1 μg/mL SDF-1 (CytoLab, Israel) and 0.25 μg/mL MDC (R&D Systems). The plates were incubated for 90 min at 37° C. in 9.5% CO2. […] The numbers of migrating T cells were measured by flow cytometer acquisition for a fixed time (60 s). To calculate specific migration, the number of cells in each subpopulation in the absence of chemokine was subtracted from the number in the corresponding cell subpopulation that migrated in the presence of chemokines. The number of migrating CD4^+CD25^+ T cells was calculated as a percentage of the total T cell population before migration. For migration of purified population we used a similar protocol.
We also examined the migration of a mixed T cell population towards SDF-1.

[3] = tested on: CD44 expression in Treg and Teff
Protocol: (§1) To verify that the effect of dopamine on adhesion of Treg is exerted through the ERK1/2 pathway, we incubated Treg with the ERK1/2 signaling pathway inhibitor PD98059 before carrying out the adhesion assay. […] Since interaction of T cells with CSPG is mediated in part by the CD44 receptor (Henke et al., 1996), and in light of the known dependence of CD44 expression on the ERK signaling pathway, it was conceivable that dopamine might affect the expression of CD44 in Treg.

[4] = tested on: LFA-1, I-CAM, and V-CAM in Treg; details: data not shown
Protocol: as §1

[5] = tested on: D5-R transcripts in Treg and Teff; details: 2 h with 10^−5 M
Protocol: (§2) (xx) Polymerase chain reaction (PCR). Total RNA was purified with the RNeasy Mini Kit (Qiagen, Germantown, Md.) and transcribed into cDNA using poly dT primers. For PCR the following primers were used: […]
This was done by assaying the expression of the dopamine type-1 receptors, D1-R and D5-R, in Treg and Teff, in the absence and in the presence of dopamine (incubation of the cells for 2 h with 10^−5 M dopamine).

[6] = tested on: BALB/c mice, optic nerve crush injury; details: 0.4 mg/kg immediately after severe optic nerve crush, two weeks later; vehicle 789±23
Source text: (iv) Retrograde labeling of retinal ganglion cells. Mice were anesthetized and placed in a stereotactic device. The skull was exposed and kept dry and clean. The bregma was identified and marked. The designated point of injection was at a depth of 2 mm from the brain surface, 2.92 mm behind the bregma in the anteroposterior axis and 0.5 mm lateral to the midline. A window was drilled in the scalp above the designated coordinates in the right and left hemispheres. The neurotracer dye FluoroGold (5% solution in saline; Fluorochrome, Denver, Colo.) was applied (1 μL, at a rate of 0.5 μL/min in each hemisphere) using a Hamilton syringe, and the skin over the wound was sutured.
(xxi) Assessment of mouse retinal ganglion cell survival. Mice were given a lethal dose of pentobarbitone (170 mg/kg). Their eyes were enucleated and the retinas were detached and prepared as flattened whole mounts in 4% paraformaldehyde solution. Labeled cells from 4-6 selected fields of identical size (0.7 mm^2) were counted. The selected fields were located at approximately the same distance from the optic disk (0.3 mm) to overcome the variation in RGC density as a function of distance from the optic disk. Fields were counted under the fluorescence microscope (magnification ×800) by observers blinded to the identity of the retinas. The average number of RGCs per field in each retina was calculated.

[7] = tested on: TGF-β1 transcripts in Treg; details: after dopamine treatment
Source text: as §2
Because the suppressive effect of Treg on Teff is partly due to transforming growth factor (TGF)-β1 (Nakamura et al., 2001), we measured whether exposure of Treg to dopamine affects the level of TGF-β1 expression.

[8] = tested on: suppressive activity of Treg in vivo (neuronal survival); details: Treg incubated with dopamine (10^−5 M, 2 h) prior to systemic injection
Source text: To unequivocally show the direct effect of dopamine on Treg activity in vivo, we examined whether direct exposure of Treg to dopamine can reduce their suppressive activity in a model of neuronal survival.

[9] = tested on: CXCR-4 and CCR-8 mRNA in Treg; details: data not shown
[10] = Teff incubated 2 h with 10^−5 M

NCCc1ccc(O)c(O)c1 [dopamine, 3,4-dihydroxyphenethylamine]
CTLA-4 expression on Treg (CTLA-4 on Treg): slightly but consistently decreased | Proliferation of Teff co-cultured with activated Treg incubated with compound versus Treg not incubated ([1]; 10^−5 M, 2 h, Treg activated 24 h with anti-CD3 and IL-2): more than twofold higher | Inhibitory effect on Treg activity ([1]; 10^−5 and 10^−7 M): reproduced | Effect on Treg suppressive activity ([1]; 10^−7 M, 2 h): significant effect | Effect on Treg suppressive activity ([1]; 10^−9 M, 2 h): no significant effect | Inhibitory effect on Treg activity ([1]; 10^−9 M): slight and not statistically significant | Direct effect on Teff proliferation [1, 10]: did not differ | Susceptibility of Teff to Treg suppression [1, 10]: did not alter the susceptibility of Teff to Treg suppression | Teff proliferation with treated versus untreated activated Treg ([1]; Treg activated 96 h, 10^−5 M for 2 h at end of activation): significantly higher | Extent of effect on Treg suppressive activity ([1]; any of the concentrations tested): only partial | Migration pattern of mixed T cell population towards SDF-1 [2]: did not alter this pattern | CD44 immunoreactivity in Treg ([3]; activated 24 h, 2 h with dopamine): decreased CD44 immunoreactivity | CD44 expression in Teff ([3]; after incubation with dopamine): not affected | LFA-1, I-CAM, V-CAM in Treg [4]: did not show any dopamine-related changes | Increase of D5-R transcripts in Teff [5]: 10 fold | Number of D5-R transcripts in Treg [5]: unchanged | Viable neurons in retina (mean±SD) [6]: 1110±56 /mm^2 | Transcripts encoding TGF-β1 in Treg [7]: decreased | Suppressive effect of injected Treg on neuronal survival [8]: abolished their suppressive effect | Expression of mRNA for CXCR-4 and CCR-8 in Treg [9]: did not change
